This is an account of results in US10538498B2, “1,3,4-oxadiazole sulfonamide derivative compounds as histone deacetylase 6 inhibitor, and the pharmaceutical composition comprising the same” (Chong Kun Dang Pharmaceutical Corp., priority 2015, dated 2020).

In this experiment the target is T1, human recombinant HDAC6 (Homo sapiens, UniProt Q9UBN7).
T1 construct: purchased Calbiochem 382180
T1 sequence (Q9UBN7 1-1215): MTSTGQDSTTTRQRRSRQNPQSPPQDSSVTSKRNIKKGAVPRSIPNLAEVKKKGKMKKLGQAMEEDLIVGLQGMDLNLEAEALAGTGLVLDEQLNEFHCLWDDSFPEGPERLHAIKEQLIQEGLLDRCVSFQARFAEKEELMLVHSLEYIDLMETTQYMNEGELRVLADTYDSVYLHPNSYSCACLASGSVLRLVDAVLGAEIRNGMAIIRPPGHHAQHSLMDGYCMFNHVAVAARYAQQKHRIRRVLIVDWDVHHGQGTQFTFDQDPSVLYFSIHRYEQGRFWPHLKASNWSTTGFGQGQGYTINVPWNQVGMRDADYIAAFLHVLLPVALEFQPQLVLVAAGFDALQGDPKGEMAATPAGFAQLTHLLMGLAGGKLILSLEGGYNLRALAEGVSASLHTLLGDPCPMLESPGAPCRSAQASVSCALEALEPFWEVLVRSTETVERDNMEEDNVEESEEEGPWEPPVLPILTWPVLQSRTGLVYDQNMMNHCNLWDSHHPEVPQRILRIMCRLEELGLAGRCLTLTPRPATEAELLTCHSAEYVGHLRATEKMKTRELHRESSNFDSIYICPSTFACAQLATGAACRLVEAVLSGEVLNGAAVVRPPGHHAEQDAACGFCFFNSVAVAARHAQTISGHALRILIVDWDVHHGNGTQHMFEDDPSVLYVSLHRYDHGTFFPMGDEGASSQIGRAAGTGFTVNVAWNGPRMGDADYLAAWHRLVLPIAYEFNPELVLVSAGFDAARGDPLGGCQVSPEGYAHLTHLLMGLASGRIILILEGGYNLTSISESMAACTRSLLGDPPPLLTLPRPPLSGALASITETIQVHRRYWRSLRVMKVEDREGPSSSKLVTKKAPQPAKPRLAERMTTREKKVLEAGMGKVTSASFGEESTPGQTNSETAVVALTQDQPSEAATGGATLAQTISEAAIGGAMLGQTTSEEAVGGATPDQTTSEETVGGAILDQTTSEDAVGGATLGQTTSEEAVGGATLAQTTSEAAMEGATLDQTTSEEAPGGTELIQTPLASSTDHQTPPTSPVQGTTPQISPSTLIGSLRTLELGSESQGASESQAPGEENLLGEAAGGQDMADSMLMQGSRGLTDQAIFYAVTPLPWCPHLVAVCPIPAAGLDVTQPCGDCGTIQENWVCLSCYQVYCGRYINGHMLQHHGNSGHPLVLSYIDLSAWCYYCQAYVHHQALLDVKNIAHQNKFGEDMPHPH
The experiment in a line: HDAC6 enzyme activity inhibition assay (HDAC Fluorimetric Drug Discovery Kit). It counts as biochemical. The settings on record: for HDAC6 selectivity (fold): HDAC1 vs HDAC6; for IC50: same protocol as the HDAC1 enzyme activity test. The essentials:
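Both isoforms are run by an identical fluorimetric protocol: deacetylation of 10 μM Fluor de Lys-SIRT1 substrate by 0.3 μg recombinant enzyme over 60 min at 30° C, in the presence of 5-fold compound dilutions. Signal is developed for 30 min and read at Ex 360/Em 460 to derive IC50.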

In the case of `O=S(=O)(c1cccnc1)N(Cc1ccc(-c2nnc(C(F)F)o2)cc1F)c1ccccc1` [Compound 11252, N-(4-(5-(difluoromethyl)-1,3,4-oxadiazol-2-yl)-2-fluorobenzyl)-N-phenylpyridine-3-sulfonamide], the “HDAC6 selectivity (fold)” value came out at 2564 fold and the IC50 was determined as 39 nM.
In the case of `Cc1ccccc1N(Cc1ccc(-c2nnc(C(F)F)o2)cc1F)S(C)(=O)=O` [Compound 11249, N-(4-(5-(difluoromethyl)-1,3,4-oxadiazol-2-yl)-2-fluorobenzyl)-N-(o-tolyl)methanesulfonamide], the “HDAC6 selectivity (fold)” value is given as 2703 fold and the IC50 is 37 nM.
In the same order, the values of `COc1cc(-c2nnc(C(F)(F)F)o2)ccc1CN(c1cccnc1)S(C)(=O)=O` [Compound 11129, N-(2-methoxy-4-(5-(trifluoromethyl)-1,3,4-oxadiazol-2-yl)benzyl)-N-(pyridin-3-yl)methanesulfonamide] are 48 fold and 2100 nM.
On the same counts, the results for `COc1ccc(N(Cc2ccc(-c3nnc(C(F)F)o3)cc2F)S(C)(=O)=O)cc1` [Compound 11193, N-(4-(5-(difluoromethyl)-1,3,4-oxadiazol-2-yl)-2-fluorobenzyl)-N-(4-methoxyphenyl)methanesulfonamide] are 3704 fold and 27 nM.
Regarding `O=S(=O)(CCN1CC[C@H](O)C1)N(Cc1ccc(-c2nnc(C(F)F)o2)cc1)c1ccccc1` [Compound 11800, (S)—N-(4-(5-(difluoromethyl)-1,3,4-oxadiazol-2-yl)benzyl)-2-(3-hydroxypyrrolidin-1-yl)-N-phenylethane-1-sulfonamide], the “HDAC6 selectivity (fold)” value amounted to 2252 fold and the IC50 stood at 44.4 nM.
`O=S(=O)(CCN1CCC(F)(F)C1)N(Cc1ccc(-c2nnc(C(F)F)o2)cc1)c1ccccc1` [Compound 11815, N-(4-(5-(difluoromethyl)-1,3,4-oxadiazol-2-yl)benzyl)-2-(3,3-difluoropyrrolidin-1-yl)-N-phenylethane-1-sulfonamide]: the “HDAC6 selectivity (fold)” value was 1326 fold and the IC50 amounted to 75.4 nM.
Consider `COCC(C)N1CCC(S(=O)(=O)N(Cc2ccc(-c3nnc(C(F)F)o3)cn2)c2ccccc2)CC1` (stereo not shown) [Compound 11790, N-((5-(5-(difluoromethyl)-1,3,4-oxadiazol-2-yl)pyridin-2-yl)methyl)-1-(1-methoxypropan-2-yl)-N-phenylpiperidine-4-sulfonamide], for which the “HDAC6 selectivity (fold)” value was found to be 2227 fold and the IC50 was found to be 44.6 nM.
In the same order, the values of `O=C(C1CC1)N1CCN(CCS(=O)(=O)N(Cc2ccc(-c3nnc(C(F)F)o3)cc2)c2ccccc2)CC1` [Compound 11761, 2-(4-(cyclopropanecarbonyl)piperazin-1-yl)-N-(4-(5-(difluoromethyl)-1,3,4-oxadiazol-2-yl)benzyl)-N-phenylethane-1-sulfonamide] are 976 fold and 102 nM.
On the same counts, the results for `O=S(=O)(C1CCN(C2CCC2)CC1)N(Cc1ccc(-c2nnc(C(F)F)o2)cn1)c1ccccc1` [Compound 11794, 1-cyclobutyl-N-((5-(5-(difluoromethyl)-1,3,4-oxadiazol-2-yl)pyridin-2-yl)methyl)-N-phenylpiperidine-4-sulfonamide] are 2192 fold and 45.6 nM.
In the same order, the values of `CN1CCCN(CCS(=O)(=O)N(Cc2ccc(-c3nnc(C(F)F)o3)cc2)c2ccccc2)CC1` [Compound 11737, N-(4-(5-(difluoromethyl)-1,3,4-oxadiazol-2-yl)benzyl)-2-(4-methyl-1,4-diazepan-1-yl)-N-phenylethanesulfonamide] are 1440 fold and 69.4 nM.
Regarding `CC(=O)N1CCN(CCCS(=O)(=O)N(Cc2ccc(-c3nnc(C(F)F)o3)cc2)c2ccccc2)CC1` [Compound 11656, 3-(4-acetylpiperazin-1-yl)-N-(4-(5-(difluoromethyl)-1,3,4-oxadiazol-2-yl)benzyl)-N-phenylpropane-1-sulfonamide], the “HDAC6 selectivity (fold)” value is listed as 1587 fold and the IC50 was determined as 63 nM.
